These results are taken from article PMC5127184 (Scientific Reports, 2016).

As usually defined, the share remaining is the share of the starting amount still present when the sample was taken. Read a low share remaining as more turnover. One may read the IC50 as the point on the concentration scale where inhibition reaches its midpoint. A low value points to higher potency. One may read the EC50 as the concentration giving half of the maximal effect.

One data set relates to INS-1 (832/13) cells. In words: cAMP accumulation, INS-1 (832/13) cells. The data set is classed as cell-based. The following applies: normalized to forskolin response, means ± S.E.M. of at least three experiments in triplicate.
Data set [1] has as its system pGLP-1R. In words: Radioligand competition binding, FlpInCHO-pGLP-1R cells. On the set-up: species or system platypus. The following applies: competition with 125I-hGLP-1 (7–36), 0.15 nM, FlpInCHO cells stably expressing pGLP-1R, overnight 4 °C; means ± S.E.M. of two or three experiments in triplicate. The method, then:
(§1) Human and pGLP-1R cDNAs were isogenically integrated into FlpIn-Chinese hamster ovary (FlpInCHO) cells (Invitrogen) and selection of receptor-expressing cells accomplished by treatment with 600 μg/ml hygromycin B as described previously. Transfected and parental FlpInCHO cells were maintained in DMEM supplemented with 10% heat-inactivated FBS and incubated in a humidified environment at 37 °C in 5% CO2.
Cells were then incubated overnight at 4 °C, followed by three washes with ice-cold 1 × PBS to remove unbound radioligand. Cells were then lysed in 0.1 M NaOH, and radioactivity determined by γ-counting as described previously.
(§2) All data were analysed in Prism 6.0c (GraphPad Software Inc., San Diego, CA). Concentration response signalling data were analysed using a three-parameter logistic equation as described previously. Signalling bias was analysed as described. Briefly, quantification of signal bias was performed using pharmacologically derived parameters of agonist affinity (Ka) and efficacy (tau) for each ligand in each of the three signalling pathways (cAMP accumulation, ERK1/2 phosphorylation, Intracellular Ca^2+ mobilisation). […] Data are presented on a log scale.
A general note: In a radioligand displacement assay an active substance lowers the binding of a labelled ligand.

Data set [2] concerns pGLP-1R. In words: Intracellular Ca2+ mobilization, FlpInCHO-pGLP-1R cells. The data set is classed as cell-based, platypus. The following applies: normalized to 100 μM ATP, means ± S.E.M. of at least three experiments in triplicate. The method, then:
as §1
(§3) FlpInCHO-hGLP-1R and FlpInCHO-pGLP-1R cells were seeded at a density of 3 × 10^4 cells/well into 96-well culture plates and incubated overnight at 37 °C in 5% CO2 and receptor-mediated intracellular Ca^2+ mobilization determined as described previously.
as §2
In general terms: Calcium flux is commonly read through the fluorescence of an indicator in the cells.

Data set [3] relates to DPP-4. Briefly: Cleavage by purified human DPP-4 (RP-HPLC). The data set is classed as in vitro ADME. The following applies: human, isolated enzyme dpp iv, 30 μM peptide, DPP-4 3 U/L, 0.1 M sodium phosphate pH 7.4, 37 °C, UV 215.8 nm, n = 3, read-out: Time to 50% reduction of intact peptide with purified human DPP-4. How it is done: (§4) Samples were analysed by RP-HPLC with solvent A (0.1% TFA in water) and B (80% acetonitrile in 0.1% aqueous TFA) at a flow rate of 0.5 ml/min.

Data set [4] is described as follows: 12.5% echidna serum in 100 mM sodium phosphate buffer (PH 7.4), 150 mM NaCl, 0.2% Tween-20. The following applies: 37 °C, up to 4 h.
A short description of data set [5]: 12.5% platypus serum in 100 mM sodium phosphate buffer (PH 7.4), 150 mM NaCl, 0.2% Tween-20. The following applies: 37 °C, up to 4 h.
Data set [6] is described as follows: 12.5% human serum in 100 mM sodium phosphate buffer (PH 7.4), 150 mM NaCl, 0.2% Tween-20. The following applies: 37 °C, up to 4 h.
Another data set is described as follows: echidna serum. The conditions noted are these: 37 °C, up to seven hours.
The nature of data set [7]: purified human serum in the presence of DPP-4 inhibitor P32/98. The following applies: 37 °C, up to 11 h.
Data set [8] is described as follows: albumin-depleted human serum (purified by DEAE Affi-Gel Blue Cartridges). The conditions noted are these: 37 °C, up to 11 h.
For data set [9], the system named is DPP-4. In words: DPP-4 (3 U/L) in sodium phosphate buffer (0.1 M, pH 7.4). The following applies: human, 37 °C, up to 120 min.
Data set [10] is described as follows: in vitro. The data set is classed as in vitro ADME, human. The conditions noted are these: 7 μM peptide, 37 °C; for Stability in albumin-depleted human serum (in words): 0-11 h, RP-HPLC, n = 3; for remaining at 11 h, 7 μM: human, 11 h incubation, serum purified by DEAE Affi-Gel Blue (albumin-depleted), RP-HPLC area under the curve of intact peptide, means ± S.E.M. of three experiments in triplicate. The method, then:
(§5) Aliquots were analysed by RP-HPLC. Human serum was from the author Briony Forbes and provided with informed consent. We confirm that all methods for these studies were carried out in accordance with relevant guidelines and regulations, and all experimental protocols satisfy the Adelaide University Human Research Ethics Committee criteria as being “negligible risk research”.

Data set [11] concerns the target T1, hGLP-1R (Homo sapiens, UniProt P43220).
T1 construct: expressed in transfected cells
Briefly: Radioligand competition binding, FlpInCHO-hGLP-1R cells. How it is done:
as §1, with “CO2. INS-1(832/13) cells were cultured in RPMI-1640 medium supplemented with 10 mM HEPES, 10% heat-inactivated FBS, 2 mM L-glutamine, 1 mM sodium pyruvate, 0.05 mM β-mercaptoethanol, 100 iU/ml penicillin, and 100 µg/ml streptomycin at 37 °C in a humidified 5% CO2 atmosphere.” for “CO2.”
FlpInCHO-hGLP-1R and FlpInCHO-pGLP-1R cells were seeded at a density of 3 × 10^4 cells/well and INS-1(832/13) cells at 10^5 cells/well into 96-well culture plates and incubated overnight at 37 °C in 5% CO2. […] Cells were then lysed in 0.1 M NaOH, and radioactivity determined by γ-counting as described previously.
All data were analysed in Prism 6.0c (GraphPad Software Inc., San Diego, CA). Concentration response signalling data were analysed using a three-parameter logistic equation as described previously. Signalling bias was analysed as described. […] The transduction ratio (tau/Ka) was extracted from standard concentration-response data that was analysed with the operational model of agonism (Kenakin & Christopoulos 2012). […]

The nature of data set [12]: in vitro. The conditions noted are these: 37 °C; for Effect of DPP-4 inhibitor P32/98 on degradation in platypus serum (in words): 100 μM P32/98, 7 μM peptide, RP-HPLC; for remaining at 11 h, 7 μM: platypus, 11 h incubation, 7 μM peptide, serum purified by DEAE Affi-Gel Blue, RP-HPLC area under the curve of intact peptide, means ± S.E.M. of three experiments in triplicate. The data set is classed as in vitro ADME, platypus. How it is done: as §5

For data set [13], the target named is T1, hGLP-1R. Briefly: cAMP accumulation, FlpInCHO-hGLP-1R cells. The data set is classed as cell-based. How it is done:
as §1, with “CO2. INS-1(832/13) cells were cultured in RPMI-1640 medium supplemented with 10 mM HEPES, 10% heat-inactivated FBS, 2 mM L-glutamine, 1 mM sodium pyruvate, 0.05 mM β-mercaptoethanol, 100 iU/ml penicillin, and 100 µg/ml streptomycin at 37 °C in a humidified 5% CO2 atmosphere. […]” for “CO2.”
All data were analysed in Prism 6.0c (GraphPad Software Inc., San Diego, CA). Concentration response signalling data were analysed using a three-parameter logistic equation as described previously. Signalling bias was analysed as described. Briefly, quantification of signal bias was performed using pharmacologically derived parameters of agonist affinity (Ka) and efficacy (tau) for each ligand in each of the three signalling pathways (cAMP accumulation, ERK1/2 phosphorylation, Intracellular Ca^2+ mobilisation). The transduction ratio (tau/Ka) was extracted from standard concentration-response data that was analysed with the operational model of agonism (Kenakin & Christopoulos 2012). […]
(In general: Changes in cAMP serve as a functional read-out for many G protein-coupled receptors.)

Data set [14] addresses T1, hGLP-1R. Briefly: ERK1/2 phosphorylation, FlpInCHO-hGLP-1R cells. The data set is classed as cell-based. The method, then:
as §1
FlpInCHO-hGLP-1R and FlpInCHO-pGLP-1R cells were seeded at a density of 3 × 10^4 cells/well into 96-well culture plates and incubated overnight at 37 °C in 5% CO2. Receptor-mediated ERK1/2 phosphorylation was determined as previously described.
as §2

Data set [15] is described as follows: in vitro. The data set is classed as in vitro ADME, echidna. The conditions noted are these: 7 μM peptide, 37 °C; for Uncleaved peptide remaining after 11 hours in echidna serum: RP-HPLC, sentence covers platypus and echidna sera; for remaining at 11 h, 7 μM: echidna, 11 h incubation, serum purified by DEAE Affi-Gel Blue, RP-HPLC area under the curve of intact peptide, means ± S.E.M. of three experiments in triplicate. How it is done: as §5

The target of data set [16] is T1, hGLP-1R. In words: Intracellular Ca2+ mobilization, FlpInCHO-hGLP-1R cells. The data set is classed as cell-based. How it is done:
as §1, §3, §2

Another data set concerns the target purified human DPP-4 (Homo sapiens, UniProt P27487). Briefly: Cleavage by purified human DPP-4 (RP-HPLC). Format: in vitro ADME. The following applies: 30 μM peptide, DPP-4 3 U/L, 0.1 M sodium phosphate pH 7.4, 37 °C, 0-120 min, n = 3. The method, then: as §4

“Also recorded” adds a separate entry of the source. Ends that are not written are not given here. Some results are limits rather than exact numbers.

T1 sequence (P43220 24-463): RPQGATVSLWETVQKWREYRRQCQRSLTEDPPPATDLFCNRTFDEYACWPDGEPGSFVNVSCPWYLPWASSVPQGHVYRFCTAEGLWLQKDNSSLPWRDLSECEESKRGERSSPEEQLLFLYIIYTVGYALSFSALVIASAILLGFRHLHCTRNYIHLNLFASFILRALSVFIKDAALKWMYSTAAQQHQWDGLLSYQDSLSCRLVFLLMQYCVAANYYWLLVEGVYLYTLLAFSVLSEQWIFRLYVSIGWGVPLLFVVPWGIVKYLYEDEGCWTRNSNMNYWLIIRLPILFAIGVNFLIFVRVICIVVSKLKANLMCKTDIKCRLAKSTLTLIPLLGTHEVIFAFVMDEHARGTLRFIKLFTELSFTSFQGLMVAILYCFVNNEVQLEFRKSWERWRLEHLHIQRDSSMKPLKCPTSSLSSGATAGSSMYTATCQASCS
purified human DPP-4, sequence (P27487 whole entry): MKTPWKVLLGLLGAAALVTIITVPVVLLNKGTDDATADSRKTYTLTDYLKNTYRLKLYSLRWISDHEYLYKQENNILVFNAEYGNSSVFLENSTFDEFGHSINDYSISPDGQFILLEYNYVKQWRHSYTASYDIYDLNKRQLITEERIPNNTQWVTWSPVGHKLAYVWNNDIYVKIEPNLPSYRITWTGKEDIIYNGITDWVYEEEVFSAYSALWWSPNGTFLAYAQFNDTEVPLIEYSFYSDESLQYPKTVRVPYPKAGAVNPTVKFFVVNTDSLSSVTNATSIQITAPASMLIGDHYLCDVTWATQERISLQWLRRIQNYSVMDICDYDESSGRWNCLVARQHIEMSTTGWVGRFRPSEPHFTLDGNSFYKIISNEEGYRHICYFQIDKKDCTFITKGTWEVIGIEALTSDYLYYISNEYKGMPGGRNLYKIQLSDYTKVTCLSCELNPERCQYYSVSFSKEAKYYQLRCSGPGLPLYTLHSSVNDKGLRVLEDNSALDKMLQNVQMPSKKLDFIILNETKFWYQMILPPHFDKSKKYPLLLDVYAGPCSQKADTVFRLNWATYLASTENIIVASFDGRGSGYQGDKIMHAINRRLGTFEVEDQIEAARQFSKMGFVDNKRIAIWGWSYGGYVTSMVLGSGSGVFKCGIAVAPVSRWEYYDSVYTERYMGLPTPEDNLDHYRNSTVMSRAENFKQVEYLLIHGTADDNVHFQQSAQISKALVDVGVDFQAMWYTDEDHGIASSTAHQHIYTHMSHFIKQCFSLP

Consider `CC[C@H](C)[C@H](NC(=O)[C@H](Cc1ccccc1)NC(=O)[C@H](CCC(=O)O)NC(=O)[C@H](CCCCN)NC(=O)[C@H](C)NC(=O)[C@H](C)NC(=O)[C@H](CCC(N)=O)NC(=O)CNC(=O)[C@H](CCC(=O)O)NC(=O)[C@H](CC(C)C)NC(=O)[C@H](Cc1ccc(O)cc1)NC(=O)[C@H](CO)NC(=O)[C@H](CO)NC(=O)[C@@H](NC(=O)[C@H](CC(=O)O)NC(=O)[C@H](CO)NC(=O)[C@@H](NC(=O)[C@H](Cc1ccccc1)NC(=O)[C@@H](NC(=O)CNC(=O)[C@H](CCC(=O)O)NC(=O)[C@H](C)NC(=O)[C@@H](N)Cc1c[nH]cn1)[C@@H](C)O)[C@@H](C)O)C(C)C)C(=O)N[C@@H](C)C(=O)N[C@@H](Cc1c[nH]c2ccccc12)C(=O)N[C@@H](CC(C)C)C(=O)N[C@H](C(=O)N[C@@H](CCCCN)C(=O)NCC(=O)N[C@@H](CCCNC(=N)N)C(=O)NCC(=O)O)C(C)C` [hGLP-1], for which, in the data set with INS-1 (832/13) cells, the “pEC50 INS-1 (832/13) cAMP accumulation” value is 9.6 ± 0.3. The “pIC50 pGLP-1R CHO” value with pGLP-1R [1] is 8.9 ± 0.1. The “pEC50 pGLP-1R CHO Ca2+ mobilization” value with pGLP-1R [2] is listed as 8.3 ± 0.1^&. In addition, the half-life at 30 μM with DPP-4 [3] is not above 60 min.
For the compound H-Ala-Pro-p-nitroanilide, the cleaved bond entry in [4], in data set [5] and in [6] was “Pro-p-nitroanilide” in each case.
In the case of HAEGTFTSDVSSYLEGQAAKEFIAWLVKGRG, in the data set “echidna serum”, the fragment found result is “hGLP-1 (1-22) HAEGTFTSDVSSYLEGQAAKEF”. Further, the not cleaved entry in data set [7] is given as “remained intact (0% degraded)”.
In the case of HFDGVYTDYFSRYLEEKATNEFIDWLLKGQE, the cleaved bond entry in the data set “echidna serum” is “T19-N20; also recorded: R12-Y13; also recorded: Y13-L14”. In addition, the not cleaved is 99.3 ± 1.8% after 11 h in [8] and “not degraded by human DPP-4” in the data set with DPP-4 [9].
As for “HFDGVYTDYFSRYLEEKATNEFIDWLLKGQE [eGLP-1]”, the “Stability in albumin-depleted human serum (in words)” value in the data set “in vitro [10]” was “remained stable”. Moreover, the fraction remaining at 11 h, 7 μM in “in vitro [10]” is 99.3 ± 1.8%; in “in vitro [12]”, 48.3 ± 3.5%; in “in vitro [15]”, 42.4 ± 4.3%. In addition, on hGLP-1R [11], the IC50 was 25.1 nM. Further, the “Effect of DPP-4 inhibitor P32/98 on degradation in platypus serum (in words)” value in the data set “in vitro [12]” is reported as “did not alter the cleavage pattern”. Also, the results for the concentration for a half-maximal effect (EC50) at hGLP-1R [13], on hGLP-1R [14] and on hGLP-1R [16] were 126 nM, 794 nM and 10 µM, respectively. Further, in “in vitro [15]”, the “Uncleaved peptide remaining after 11 hours in echidna serum” value is “less than 50%”. Also, the “Degradation by purified human DPP-4 (in words)” value on purified human DPP-4 was “not degraded”.
For HSEGTFTNDVTRLLEEKATSEFIAWLLKGLE, in “echidna serum”, the cleaved bond result is on record as “R12-L13; also recorded: L14-E15; also recorded: E16-K17; also recorded: T19-S20; also recorded: L26-L27; also recorded: K28-G29”. Also, the not cleaved in [8] was 96.4 ± 2.0% after 11 h; in the data set on DPP-4 [9] it was “not degraded by human DPP-4”.
Regarding “HSEGTFTNDVTRLLEEKATSEFIAWLLKGLE [pGLP-1]”, the “Stability in albumin-depleted human serum (in words)” value in “in vitro [10]” was “remained stable”. The fraction remaining at 11 h, 7 μM in the data set “in vitro [10]” was found to be 96.4 ± 2%; in the data set “in vitro [12]”, 55.1 ± 3.5%; in the data set “in vitro [15]”, 49.4 ± 2.9%. At hGLP-1R [11], this compound had a half-maximal inhibitory concentration (IC50) of 12.6 nM. The “Effect of DPP-4 inhibitor P32/98 on degradation in platypus serum (in words)” value in the data set “in vitro [12]” is on record as “did not alter the cleavage pattern”. Moreover, the EC50 was 2 nM at hGLP-1R [13], 12.6 nM at hGLP-1R [14] and 0.316 µM at hGLP-1R [16]. In addition, in the data set “in vitro [15]”, the “Uncleaved peptide remaining after 11 hours in echidna serum” value is recorded as “less than 50%”. The “Degradation by purified human DPP-4 (in words)” value on purified human DPP-4 is “not degraded”.
